Measurements published in PubChem BioAssay AID2060906 (Molecular Pharmacology Branch, DTP, NCI, 2025).
pIC50: −log10 of the molar value.

Test system: 485176-168-R4-J1-PDC complex spheroid growth
Experiment: Anticancer human tumor 485176-168-R4-J1-PDC patient-derived pancreatic adenocarcinoma cell line growth inhibition [RAS]
Details: for pIC50: curve of first compound; for viability, T/C: stronger effect = lower value
Procedure, shortened: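 Agents were tested in combination matrices in half-log decrements from a top concentration at or near clinical Cmax (10 microM if undetermined). Targets were multi-cell spheroids of tumour lines plus HUVEC and MSC stromal cells.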
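Note: spheroids exposed to compounds for seven days before readout.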
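Throughout, for viability, T/C: luminescence viability expressed relative to DMSO vehicle wells set as 100%.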

Q: How did the pIC50 (second compound 0.0316 µM) turn out when `C=CC(=O)N1CCN(c2nc(OCC3CCCN3C)nc3c(F)c(-c4nc(N)cc(C)c4C(F)(F)F)c(Cl)cc23)C(C)C1` (configuration not stated) + C#Cc1c(F)ccc2cc(O)cc(-c3ncc4c(N5CC6CCC(C5)N6)nc(OCC56CCCN5CC(F)C6)nc4c3F)c12 was run?
A: The pIC50 was less than 6.00.

Q: What about the pIC50 (second compound 0.1 µM) of the same compound?
A: Its pIC50 is less than 6.00.

Q: And the pIC50 (second compound 0.316 µM)?
A: The pIC50 was less than 6.00.

Q: And the pIC50 (second compound 1 µM)?
A: Its pIC50 is less than 6.00.

Q: What about the pIC50 (second compound 3.16 µM) of the same compound?
A: The pIC50 was less than 6.00.

Q: And the pIC50 (second compound 10 µM)?
A: The pIC50 was less than 6.00.

Q: And the viability, T/C (second compound 0.0316 µM, first compound 0.00316 µM)?
A: Its viability, T/C is 103%.

Q: And the viability, T/C (second compound 0.0316 µM, first compound 0.01 µM)?
A: The viability, T/C was 88.9%.

Q: What about the viability, T/C (second compound 0.0316 µM, first compound 0.0316 µM) of the same compound?
A: The viability, T/C was 88.5%.

Q: And the viability, T/C (second compound 0.0316 µM, first compound 0.1 µM)?
A: The viability, T/C was 105%.

Q: And the viability, T/C (second compound 0.0316 µM, first compound 0.316 µM)?
A: Its viability, T/C is 96.8%.

Q: What about the viability, T/C (second compound 0.0316 µM, first compound 1 µM) of the same compound?
A: Its viability, T/C is 103%.

Q: What about the viability, T/C (second compound 0.1 µM, first compound 0.00316 µM) of the same compound?
A: Its viability, T/C is 117%.

Q: What about the viability, T/C (second compound 0.1 µM, first compound 0.01 µM) of the same compound?
A: The viability, T/C was 109%.

Q: What about the viability, T/C (second compound 0.1 µM, first compound 0.0316 µM) of the same compound?
A: The viability, T/C was 99.2%.

Q: And the viability, T/C (second compound 0.1 µM, first compound 0.1 µM)?
A: The viability, T/C was 102%.

Q: What about the viability, T/C (second compound 0.1 µM, first compound 0.316 µM) of the same compound?
A: The viability, T/C was 108%.

Q: And the viability, T/C (second compound 0.1 µM, first compound 1 µM)?
A: Its viability, T/C is 103%.

Q: And the viability, T/C (second compound 0.316 µM, first compound 0.00316 µM)?
A: Its viability, T/C is 86.8%.

Q: And the viability, T/C (second compound 0.316 µM, first compound 0.01 µM)?
A: Its viability, T/C is 93.6%.

Q: What about the viability, T/C (second compound 0.316 µM, first compound 0.0316 µM) of the same compound?
A: The viability, T/C was 103%.

Q: And the viability, T/C (second compound 0.316 µM, first compound 0.1 µM)?
A: The viability, T/C was 103%.

Q: And the viability, T/C (second compound 0.316 µM, first compound 0.316 µM)?
A: The viability, T/C was 87.3%.

Q: What about the viability, T/C (second compound 0.316 µM, first compound 1 µM) of the same compound?
A: The viability, T/C was 89.9%.

Q: And the viability, T/C (second compound 1 µM, first compound 0.00316 µM)?
A: The viability, T/C was 115%.

Q: And the viability, T/C (second compound 1 µM, first compound 0.01 µM)?
A: The viability, T/C was 83.1%.

Q: And the viability, T/C (second compound 1 µM, first compound 0.0316 µM)?
A: Its viability, T/C is 77.5%.

Q: What about the viability, T/C (second compound 1 µM, first compound 0.1 µM) of the same compound?
A: The viability, T/C was 101%.

Q: And the viability, T/C (second compound 1 µM, first compound 0.316 µM)?
A: Its viability, T/C is 97.1%.

Q: What about the viability, T/C (second compound 1 µM, first compound 1 µM) of the same compound?
A: Its viability, T/C is 86.1%.

Q: And the viability, T/C (second compound 3.16 µM, first compound 0.00316 µM)?
A: Its viability, T/C is 115%.

Q: What about the viability, T/C (second compound 3.16 µM, first compound 0.01 µM) of the same compound?
A: The viability, T/C was 92.2%.

Q: What about the viability, T/C (second compound 3.16 µM, first compound 0.0316 µM) of the same compound?
A: Its viability, T/C is 85.3%.

Q: What about the viability, T/C (second compound 3.16 µM, first compound 0.1 µM) of the same compound?
A: The viability, T/C was 104%.

Q: And the viability, T/C (second compound 3.16 µM, first compound 0.316 µM)?
A: Its viability, T/C is 98.1%.

Q: And the viability, T/C (second compound 3.16 µM, first compound 1 µM)?
A: The viability, T/C was 70.3%.

Q: And the viability, T/C (second compound 10 µM, first compound 0.00316 µM)?
A: The viability, T/C was 94.1%.

Q: And the viability, T/C (second compound 10 µM, first compound 0.01 µM)?
A: The viability, T/C was 81.8%.

Q: What about the viability, T/C (second compound 10 µM, first compound 0.0316 µM) of the same compound?
A: Its viability, T/C is 95.9%.

Q: What about the viability, T/C (second compound 10 µM, first compound 0.1 µM) of the same compound?
A: Its viability, T/C is 94.6%.

Q: What about the viability, T/C (second compound 10 µM, first compound 0.316 µM) of the same compound?
A: The viability, T/C was 95.2%.

Q: And the viability, T/C (second compound 10 µM, first compound 1 µM)?
A: Its viability, T/C is 94.8%.
